Test results reported in patent US11806393B2, “Flavivirus peptide sequences, epitopes, and methods and uses thereof” (priority 2017, dated 2023).

How the values were obtained:
CD3+CD8+ T cells = assay: IFNγ ICS, ZIKV-infected Ifnar-/- HLA-B*0702 transgenic mice; format: cell-based, mouse; settings: for % IFNγ+ CD8+ T cells, FSS13025 / % IFNγ+ CD8+ T cells, MR766: HLA-B*0702 mice; for % IFNγ+ CD8+ T cells, FSS13025: 7 days after ZIKV FSS13025, ICS; for % IFNγ+ CD8+ T cells, MR766: 7 days after ZIKV MR766, ICS; for simultaneous IFNγ and TNFα production by peptide-stimulated CD8+ T cells: ZIKV MR766-infected mice
Method: Two ZIKV strains, MR766 (Uganda, 1947) and FSS13025 (Cambodia, 2010), were obtained from the World Reference Center for Emerging Viruses and Arboviruses (WRCEVA). The mouse-adapted DENV2 strain S221 is a triple-plaque purified clone derived from DENV2 D2S1038. Both ZIKV and DENV2 were amplified in C6/36 mosquito cells, and viral titers were measured using baby hamster kidney (BHK)-21 cell-based focus forming assay (FFA). For epitope screening, 5-week old mice (female or male) were infected retro-orbitally (R.O.) with either 1×102 FFU of ZIKV FSS13025 or ZIKV MR766, or 2×10^4 FFU of DENV2 S221 in 200 μl 10% FBS/PBS. Seven days after infection, CD8^+ T cells were isolated from splenocytes and used for ELISPOT assay, while the splenocytes were directly used for ICS assay. Additionally, 5-week old mice were inoculated I.P. with 2×10^3 FFU of DENV2 S221 for 4 weeks.
(§1) Spleens were harvested from virus-infected, mock-immunized, or peptide-immunized mice. 1×10^6 splenocytes were plated in each well of 96-well U-bottom plates and stimulated with individual peptide (10 μg crude peptide or 1 μg pure peptide per well) for 6 hours. Five hours before the end of incubation, Brefeldin A (GolgiPlug; BD Biosciences) and PE-conjugated anti CD107a mAb (clone 1D4B, eBioscience) were added to the cells. Splenocytes stimulated with PMA-ionomycin were used as the positive control, while cells without any stimulation were the negative control. […] Samples were run using an LSR™ II (BD Biosciences) and analyzed using FLOWJO™ software X 10.0.7 (Tree Star, Ashland, Oreg.).
Data represent the average of two independent experiments and are expressed as mean±SEM. *, P<0.05; **, P<0.01; Two-tailed Mann-Whitney test. P/I denotes PMA/ionomycin.

CD44+CD62L- CD8+ T cells = assay: ICS, peptide-immunized Ifnar-/- HLA-B*0702 mice challenged with ZIKV; format: cell-based, mouse; settings: mice immunized with the 4 ZIKV/DENV cross-reactive peptides, day 3 after ZIKV challenge
Description: Two HLA-B*0702-binding ZIKV-specific peptides (FSS-NS2A133-141(SEQ ID NO: 41) and FSS/MR766-NS2B68-75 (SEQ ID NO: 45)) and four ZIKV/DENV cross-reactive peptides (FSS/MR766-NS4B426-435 (SEQ ID NO: 60), FSS/MR766-NS2A75-84 (SEQ ID NO: 39), FSS/MR766-NS3206-215 (SEQ ID NO: 47), and FSS/MR766-NS3574-582 (SEQ ID NO: 52)) were chosen for synthesis. Five HLA-A*0101-binding peptides (FSS/MR-E159-167 (SEQ ID NO: 70), FSS/MR-E195-203 (SEQ ID NO: 71), FSS/MR-NS123-31 (SEQ ID NO: 74), FSS/MR-NS4B231-239 (SEQ ID NO: 77), and FSS/MR-NS5509-517 (SEQ ID NO: 79)) were chosen for synthesis. Mice (both female and male; 5-6 weeks of age) were immunized subcutaneously with a mixture of HCV helper peptide (100 μg/mouse) and 3 or 4 HLA-B*0702-binding peptides (50 μg/peptide/mouse) emulsified in Complete Freund's Adjuvant (CFA). Mock group mice received the same immunization strategy but without any ZIKV-specific or ZIKV/DENV cross-reactive peptide. On the 21st day, mice were boosted with the same peptide mixtures emulsified in Incomplete Freund's Adjuvant (IFA). […] Three days post ZIKV infection mice were sacrificed, and serum and spleen were harvested. The splenocytes were used for ICS assay. After cardiac perfusion with PBS, brain was harvested. The levels of infectious ZIKV in serum and brain were measured using FFA.
as §1
Peptide groups received corresponding peptide immunizations as described in Materials and Methods. […] CD3^+CD8^+CD44^+CD62L− T cells were gated and the percentages of IFNγ^+ and/or TNFα^+ cells in a representative mouse from mock (FIG. 12A) and peptide (FIG. 12B) groups were determined by ICS. The levels of infectious ZIKV in sera and brains were measured via FFA. Data were expressed as mean±SEM. *, P<0.05; **, P<0.01; ***, P<0.001. Two-tailed Mann-Whitney test.

KPRWMDARV [FSS/MR-NS3574-582]
% IFNγ+ CD8+ T cells, FSS13025 (CD3+CD8+ T cells): (0.79%)
% IFNγ+ CD8+ T cells, MR766 (CD3+CD8+ T cells): (1.9%)
simultaneous IFNγ and TNFα production by peptide-stimulated CD8+ T cells (CD3+CD8+ T cells): stimulated simultaneous production of IFNγ and TNFα
percentage of epitope-specific cells among antigen experienced (CD44+CD62L-) CD8+ T cells (CD44+CD62L- CD8+ T cells): 0.84±0.39%

RPALLVSFIF [FSS/MR-NS2A75-84]
% IFNγ+ CD8+ T cells, FSS13025 (CD3+CD8+ T cells): (0.53%)
% IFNγ+ CD8+ T cells, MR766 (CD3+CD8+ T cells): (2.04%)
simultaneous IFNγ and TNFα production by peptide-stimulated CD8+ T cells (CD3+CD8+ T cells): stimulated simultaneous production of IFNγ and TNFα
percentage of epitope-specific cells among antigen experienced (CD44+CD62L-) CD8+ T cells (CD44+CD62L- CD8+ T cells): 3.27±1.91%
